According to PubChem BioAssay (NCI):
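Protocol summary: plate cells (96-well), add compound at 5 concentrations, incubate 48 h, interpolate endpoints linearly. TGI marks complete inhibition of growth.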

How the values were obtained:
Test in all cases: NCI-60 cell line screen, 48 h
[1] = tested on: 786-0 renal
[2] = tested on: A498 renal
[3] = tested on: A549 NSCLC
[4] = tested on: ACHN renal
[5] = tested on: BT-549 breast
[6] = tested on: CAKI-1 renal
[7] = tested on: CCRF-CEM leukemia
[8] = tested on: COLO 205 colon
[9] = tested on: DU-145 prostate
[10] = tested on: EKVX NSCLC
[11] = tested on: HCT-116 colon
[12] = tested on: HCT-15 colon
[13] = tested on: HL-60(TB) leukemia
[14] = tested on: HOP-62 NSCLC
[15] = tested on: HOP-92 NSCLC
[16] = tested on: HS 578T breast
[17] = tested on: HT29 colon
[18] = tested on: KM12 colon
[19] = tested on: LOX IMVI melanoma
[20] = tested on: M14 melanoma
[21] = tested on: MCF7 breast
[22] = tested on: MDA-MB-231 breast
[23] = tested on: MDA-MB-435
[24] = tested on: MDA-N
[25] = tested on: MOLT-4 leukemia
[26] = tested on: NCI-H226 lung
[27] = tested on: NCI-H23 lung
[28] = tested on: NCI-H460 lung
[29] = tested on: NCI-H522 lung
[30] = tested on: OVCAR-3 ovarian
[31] = tested on: OVCAR-4 ovarian
[32] = tested on: OVCAR-5 ovarian
[33] = tested on: OVCAR-8 ovarian
[34] = tested on: PC-3 prostate
[35] = tested on: SF-268 CNS
[36] = tested on: SF-295 CNS
[37] = tested on: SF-539 CNS
[38] = tested on: SK-MEL-2 melanoma
[39] = tested on: SK-MEL-28 melanoma
[40] = tested on: SK-MEL-5 melanoma
[41] = tested on: SK-OV-3 ovarian
[42] = tested on: SN12C renal
[43] = tested on: SNB-19 CNS
[44] = tested on: SNB-75 CNS
[45] = tested on: SW-620 colon
[46] = tested on: T-47D breast
[47] = tested on: TK-10 renal
[48] = tested on: U251 CNS
[49] = tested on: UACC-257 melanoma
[50] = tested on: UACC-62 melanoma
[51] = tested on: UO-31 renal

## CCCCC1C=Cn2c(=O)oc3c(OC(C)C)c(OC(C)C)c(O)c1c32 (stereo unspecified)
[1]
  TGI: 48.6 µM
[2]
  TGI: 32.3 µM
[3]
  TGI: 46.6 µM
[4]
  TGI: > 100 µM
[5]
  TGI: 34.7 µM
[6]
  TGI: 37.5 µM
[7]
  TGI: 25.6 µM
[8]
  TGI: 30.3 µM
[9]
  TGI: 34.2 µM
[10]
  TGI: 83.1 µM
[11]
  TGI: 34.9 µM
[12]
  TGI: 31.4 µM
[13]
  TGI: 22.8 µM
[14]
  TGI: 38 µM
[15]
  TGI: 47.2 µM
[16]
  TGI: 67 µM
[17]
  TGI: 29.2 µM
[18]
  TGI: 27.4 µM
[19]
  TGI: 27.4 µM
[20]
  TGI: 46.3 µM
[21]
  TGI: 29.2 µM
[22]
  TGI: 33.1 µM
[23]
  TGI: 26.8 µM
[24]
  TGI: 55.5 µM
[25]
  TGI: 27.8 µM
[26]
  TGI: 27.5 µM
[27]
  TGI: 32.6 µM
[28]
  TGI: 29.6 µM
[29]
  TGI: 24.7 µM
[30]
  TGI: 30.6 µM
[31]
  TGI: 42.8 µM
[32]
  TGI: 34.2 µM
[33]
  TGI: 29.5 µM
[34]
  TGI: > 100 µM
[35]
  TGI: 44.9 µM
[36]
  TGI: 40 µM
[37]
  TGI: 38.7 µM
[38]
  TGI: 37.7 µM
[39]
  TGI: 39.3 µM
[40]
  TGI: 27.8 µM
[41]
  TGI: 84.3 µM
[42]
  TGI: 49.1 µM
[43]
  TGI: 68.2 µM
[44]
  TGI: 47.5 µM
[45]
  TGI: 27.2 µM
[46]
  TGI: 27 µM
[47]
  TGI: 31.4 µM
[48]
  TGI: 29.4 µM
[49]
  TGI: 41.7 µM
[50]
  TGI: 28.8 µM
[51]
  TGI: 27.8 µM
